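How tested: cells in 96-well plates exposed to compound for 48 hours at five concentrations. GI50 is the concentration that inhibits growth by half. TGI is the concentration that stops growth completely.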
What was measured:
Assay in all cases: NCI tumour cell line growth inhibition, 48 h
ACHN renal = system: ACHN renal
OVCAR-5 ovarian = system: OVCAR-5 ovarian
LOX IMVI melanoma = system: LOX IMVI melanoma
DU-145 prostate = system: DU-145 prostate
CAKI-1 renal = system: CAKI-1 renal
NCI-H23 lung = system: NCI-H23 lung
OVCAR-3 ovarian = system: OVCAR-3 ovarian
SNB-75 CNS = system: SNB-75 CNS
SF-295 CNS = system: SF-295 CNS

SMILES | TGI (ACHN renal) [µM] | TGI (OVCAR-5 ovarian) [µM] | TGI (LOX IMVI melanoma) [µM] | TGI (DU-145 prostate) [µM] | TGI (CAKI-1 renal) [µM] | TGI (NCI-H23 lung) [µM] | TGI (OVCAR-3 ovarian) [µM] | TGI (SNB-75 CNS) [µM] | TGI (SF-295 CNS) [µM] | GI50 (ACHN renal) [µM] | GI50 (OVCAR-5 ovarian) [µM] | GI50 (LOX IMVI melanoma) [µM] | GI50 (DU-145 prostate) [µM] | GI50 (CAKI-1 renal) [µM] | GI50 (NCI-H23 lung) [µM] | GI50 (OVCAR-3 ovarian) [µM] | GI50 (SNB-75 CNS) [µM] | GI50 (SF-295 CNS) [µM]
NC(Cc1ccc(O)cn1)C(=O)NC(C(=O)O)c1ccccc1 (centres undefined) | > 100 | > 100 | > 100 | > 100 | > 100 | > 100 | > 100 | > 100 | > 100 | – | – | – | – | – | – | – | – | –
Nc1nc(Cl)cc(NCC2(CO)CCCCC2)n1 | > 100 | > 100 | > 100 | > 100 | > 100 | > 100 | > 100 | > 100 | > 100 | – | – | – | – | – | – | – | – | –
C1=N[C@]23C(=N[C@H](N=C2NCc2ccco2)[C@]24N=CNC2=N[C@H]3N=C4NCc2ccco2)N1 | > 100 | > 100 | > 100 | > 100 | > 100 | > 100 | > 100 | > 100 | > 100 | > 100 | > 100 | > 100 | > 100 | 19.5 | > 100 | > 100 | 67.1 | > 100
COc1ccccc1C1C2=C(COC2=O)Oc2cc3c(cc21)OCO3 (centres undefined) | > 100 | > 92.4 | > 100 | > 42.4 | > 100 | > 100 | 16.7 | 21.9 | 12.6 | – | – | – | – | – | – | – | – | –
CN(C(=O)[C@H](NC(=O)OCc1ccccc1)c1ccccc1)C1CCCCC1N1CCCC1 (some centres undefined) | > 100 | > 100 | > 100 | > 100 | > 100 | > 100 | > 100 | > 100 | > 100 | – | – | – | – | – | – | – | – | –

— PubChem BioAssay (NCI)
